Source: US10022380B2, “Treatment of solid tumours” (Vivolux AB, priority 2012, dated 2018)

Legend:
[1] = test system: monolayer HCT116 cells; experiment: Proliferation / viability of monolayer HCT116 cells
Method: HCT116 MCS were treated for 6 hours with 6 μM CB21, followed by changing to drug-free medium and further incubation. MCS were sectioned and stained for active caspase-3. […] Cells were incubated for 30 minutes with EdU, fixed and analyzed by ArrayScan. […] Cells were seeded at 7,000 or 70,000 per well in 96 well plates in the presence or absence of CB21.
Cells were fixed and stained for LC3 after drug treatment at the times indicated. […] Cells were treated with 6 μM CB21 and/or 10 μM bafilomycin A and cells were photographed at the times Indicated. […] HCT116 cells were treated with 6 μM CB21 and/or 10 μM chloroquine. Cell proliferation was monitored by calculation of culture confluency.
HCT116 colon carcinoma cells were maintained in McCoy's 5A modified medium/10% fetal calf serum at 37° C. in 5% CO2. MCS were prepared using a modification of our previously described method (12). A cell suspension containing 10,000 cells (200 μl) was added to each well of poly-HEMA coated 96 well plates. The wells were then overfilled by adding an additional 170 μl media to acquire a convex surface curvature. […] Caspase cleaved keratin-18 (K18-Asp396) was determined using 25 mL medium/extract using the M30 CytoDeath ELISA assay (a variant of the M30-Apoptosense® ELISA (13) developed for in-vitro use (Peviva AB, Bromma, Sweden)). […]

[2] = test system: HCT116 MCS; experiment: Pimonidazole staining of sectioned spheroids (indirect measure of respiration/hypoxia); format: cell-based
Method: (§1) HCT116 colon carcinoma cells were maintained in McCoy's 5A modified medium/10% fetal calf serum at 37° C. in 5% CO2. […] A cell suspension containing 10,000 cells (200 μl) was added to each well of poly-HEMA coated 96 well plates. The wells were then overfilled by adding an additional 170 μl media to acquire a convex surface curvature. Plasticine spacers (3 mm) were placed in the corners of each plate to prevent the lids from touching the media. The plates were then inverted in order to allow the cells to sediment to the liquid/air interface and incubated in gentle shaking. After 24 hrs incubation the plates were returned to normal. First excess media was removed by aspiration and then plasticine spacers. The plates were incubated for 4 days prior to drug treatment.
MCS produced by the hanging drop method in 96 well plates were fixed in paraformaldehyde, dehydrated, embedded in paraffin and sectioned. Each sample contained 32 MCS (MCS from each 96 well plate were pooled into 3 groups). The sections were deparaffinized with xylene, rehydrated and microwaved, and then incubated overnight with the monoclonal primary antibodies diluted in 1% (weight/volume) bovine serum albumin and visualized by standard avidin-biotin-peroxidase complex technique (Vector Laboratories, Burlingame, Calif., USA). Counterstaining was performed with Mayer's haematoxylin. […]

[3] = test system: LC3-I and LC3-II; experiment: LC3-I / LC3-II induction in HCT116 (western blot, LC3 staining); format: cell-based; conditions: for Induction of LC3-I and LC3-II: HCT116 cells
Method: FIG. 4B: Staining of CB21-treated cells with an antibody to LC3. […] Cells were treated for 6 hours (6 μM), and then incubated further. Protein were extracted and subjected to western blot analysis. […] FIGS. 4F-4H: Morphology of peripheral and core cells visualized by electron microscopy. MCS were treated for 6 hours with 6 μM C21 and incubated further in drug-free medium for the times indicated and sectioned.
MCSs contain mostly non-proliferating cells. […] The mechanism(s) of action was studied in more detail. […] LC3-II (the PE-conjugated form of LC3) is a protein marker regarded to be most reliably associated with autophagosomes (19).

[4] = test system: HCT116 MCS; format: cell-based
Method: Cell viability was determined using the acid phosphatase test.
as §1
Viability measurements were performed by the acid phosphatase (APH) method described by Friedrich et al. (14). Background activity was subtracted.

[5] = test system: mTOR substrate 4EBP1; experiment: Phosphorylation of mTOR substrate 4EBP1 and of AKT (western blot); conditions: HCT116 cells
Method: Cell extract proteins were resolved by Tris-Acetate PAGE gels (Invitrogen, Carlsbad, Calif.) and transferred onto a polyvinylidene difluoride (PVDF) membrane. The membranes were incubated overnight with antibodies, washed and incubated with HRP-conjugated anti-rabbit Ig (Amersham Biosciences, Little Chalfont, UK) for 1 h. Peroxidase activity was developed by SuperSignal West Pico (Pierce Biotechnology, Rockford, Ill.) according to manufacturer's instructions.

With `CCN(CC)CCCC(C)Nc1ccnc2cc(Cl)ccc12` (stereo not drawn) [CQ, Chloroquine] the “proliferation / cell death of monolayer HCT116 cells” value ([1]; 10 μM chloroquine, 6 μM CB21, culture confluency) was “no effect”.

`CO[C@H]1C[C@@H]2CC[C@@H](C)[C@@](O)(O2)C(=O)C(=O)N2CCCC[C@H]2C(=O)O[C@H]([C@H](C)C[C@@H]2CC[C@@H](O)[C@H](OC)C2)CC(=O)[C@H](C)/C=C(\C)[C@@H](O)[C@@H](OC)C(=O)[C@H](C)C[C@H](C)/C=C/C=C/C=C/1C` [Rapamycin] was tested, and the “Pimonidazole positive area (%)” value ([2]; 10 nM, 5 h) was 42.2%.

For `Cn1c(=O)n(-c2ccc(C(C)(C)C#N)cc2)c2c3cc(-c4cnc5ccccc5c4)ccc3ncc21` [NVP-BEZ235], the “Induction of LC3-I and LC3-II” value ([3]; 6 h) was “weak induction”, the “Induction of LC3-I and LC3-II” value ([3]; 24 h) was “no induction observed” and the “viability of the cells in the core of the MCS” value [4] was “did not affect the viability”. For the same molecule, the 4EBP1 phosphorylation [5] was “decrease”.

In the case of `N#CC(C#N)=NNc1cccc(Cl)c1` [CCCP, carbonylcyanide-3-chlorophenylhydrazone], the “Pimonidazole positive area (%)” value ([2]; 10 μM, 6 h) is reported as 79.9%.

In the case of `CO/C1=C\C(C)=C\[C@@H](C)[C@@H](O)[C@@H](C)C/C(C)=C/C=C/[C@H](OC)[C@@H]([C@@H](C)[C@@H](O)[C@H](C)[C@@]2(O)C[C@@H](O)[C@H](C)[C@@H](C(C)C)O2)OC1=O` [bafilomycin A], the “appearance of large cytoplasmic LC3-II positive vesicles” value ([3]; HCT116 cells treated with CB21, 10 μM Bafilomycin A) is reported as “suppresses the appearance of large cytoplasmic LC3-II positive vesicles” and the “time at which cytotoxicity was observed” value ([1]; HCT116, 10 μM bafilomycin A, 6 μM CB21) is reported as about 72 h.
